The text below walks through data of ChEMBL document CHEMBL1147963, “Design, synthesis, and antitumor activity of bile acid-polyamine-nucleoside conjugates” (Bioorg Med Chem Lett, 2007).

Holding throughout (format): functional, cell-based
The test system of assay [1] is HeLa. Put plainly: Cytotoxicity against human HeLa cells at 100 uM after 48 hrs by MTT assay. For orientation: Tetrazolium dyes change colour on reduction, which living cells bring about.
The test system of assay [2] is 786-0. Put plainly: Cytotoxicity against human 7860 cells after 48 hrs by MTT assay.
For assay [3], the system named is HeLa. Put plainly: Cytotoxicity against human HeLa cells at 125 uM after 48 hrs by MTT assay.

A value given as a limit tells only on which side of the number the result lay.

For the molecule `CCCCCCCCCCCCCCCCCCO[PH](=O)OC[C@H]1O[C@@H](n2cc(C)c(=O)[nH]c2=O)C[C@@H]1N=[N+]=[N-]` (stereo not given in full), the half-maximal inhibitory concentration (IC50) is over 100 µM in assay [1] and 86 µM in assay [2] (Homo sapiens, 786-0, 48 h).

For the molecule `Cc1cn([C@H]2C[C@H](N=[N+]=[N-])[C@@H](COP(=O)(NCCNCCNC(=O)CCC(C)[C@H]3CC[C@H]4[C@@H]5[C@H](O)C[C@@H]6C[C@H](O)CC[C@]6(C)[C@H]5C[C@H](O)[C@]34C)OC[C@H]3O[C@@H](n4cc(C)c(=O)[nH]c4=O)C[C@@H]3N=[N+]=[N-])O2)c(=O)[nH]c1=O` (stereo not given in full), the IC50 in assay [1] is over 100 µM; in assay [2] (Homo sapiens, 786-0, 48 h), over 100 µM.

Take `CCCCCCCCCCCCCCCCCCOP(=O)(NCCNCCNC(=O)CCC(C)[C@H]1CC[C@H]2[C@@H]3CC[C@@H]4C[C@H](O)CC[C@]4(C)[C@H]3C[C@H](O)[C@]12C)OC[C@H]1O[C@@H](n2cc(C)c(=O)[nH]c2=O)C[C@@H]1N=[N+]=[N-]` (stereo not given in full): the IC50 is over 100 µM in assay [1] and 58 µM in assay [2] (Homo sapiens, 786-0, 48 h).

For the molecule `Cc1cn([C@H]2C[C@H](N=[N+]=[N-])[C@@H](COP(=O)(NCCNCCNC(=O)CCC(C)[C@H]3CC[C@H]4[C@@H]5C(=O)C[C@@H]6CC(=O)CC[C@]6(C)[C@H]5CC(=O)[C@]34C)OC[C@H]3O[C@@H](n4cc(C)c(=O)[nH]c4=O)C[C@@H]3N=[N+]=[N-])O2)c(=O)[nH]c1=O` (stereo not given in full), the IC50 is over 100 µM in assay [1] and over 100 µM in assay [2] (Homo sapiens, 786-0, 48 h).

Turning to `Cc1cn([C@H]2C[C@H](N=[N+]=[N-])[C@@H](COP(=O)(NCCCNCCCNC(=O)CCC(C)[C@H]3CC[C@H]4[C@@H]5CC[C@@H]6C[C@H](O)CC[C@]6(C)[C@H]5C[C@H](O)[C@]34C)OC[C@H]3O[C@@H](n4cc(C)c(=O)[nH]c4=O)C[C@@H]3N=[N+]=[N-])O2)c(=O)[nH]c1=O` (stereo not given in full), the concentration for half-maximal inhibition (IC50) was over 100 µM in assay [1] and over 100 µM in assay [2] (Homo sapiens, 786-0, 48 h).

With `CCCCCCCCCCCCCCCCCCOP(=O)(NCCCNCCCNC(=O)CCC(C)[C@H]1CC[C@H]2[C@@H]3[C@H](O)C[C@@H]4C[C@H](O)CC[C@]4(C)[C@H]3C[C@H](O)[C@]12C)OC[C@H]1O[C@@H](n2cc(C)c(=O)[nH]c2=O)C[C@@H]1N=[N+]=[N-]` (stereo not given in full), the half-inhibitory concentration (IC50) in assay [1] is 94 µM; in assay [2] (Homo sapiens, 786-0, 48 h), 7.2 µM.

As to `CCCCCCCCCCCCCCCCCCOP(=O)(NCCCNCCCNC(=O)CCC(C)[C@H]1CC[C@H]2[C@@H]3C(=O)C[C@@H]4CC(=O)CC[C@]4(C)[C@H]3CC(=O)[C@]12C)OC[C@H]1O[C@@H](n2cc(C)c(=O)[nH]c2=O)C[C@@H]1N=[N+]=[N-]` (stereo not given in full), the concentration for half-maximal inhibition (IC50) was determined as 91 µM in assay [1] and 7.1 µM in assay [2] (Homo sapiens, 786-0, 48 h).

`CCCCCCCCCCCCCCCCCCOP(=O)(NCCNCCNC(=O)CCC(C)[C@H]1CC[C@H]2[C@@H]3C(=O)C[C@@H]4CC(=O)CC[C@]4(C)[C@H]3CC(=O)[C@]12C)OC[C@H]1O[C@@H](n2cc(C)c(=O)[nH]c2=O)C[C@@H]1N=[N+]=[N-]` (stereo not given in full): the IC50 in assay [1] is over 100 µM; in assay [2] (Homo sapiens, 786-0, 48 h), 42 µM.

Take `Cc1cn([C@H]2C[C@H](N=[N+]=[N-])[C@@H](COP(=O)(NCCCNCCCNC(=O)CCC(C)[C@H]3CC[C@H]4[C@@H]5C(=O)C[C@@H]6CC(=O)CC[C@]6(C)[C@H]5CC(=O)[C@]34C)OC[C@H]3O[C@@H](n4cc(C)c(=O)[nH]c4=O)C[C@@H]3N=[N+]=[N-])O2)c(=O)[nH]c1=O` (stereo not given in full): the IC50 in assay [1] was over 100 µM; in assay [2] (Homo sapiens, 786-0, 48 h), over 100 µM.

Take `Cc1cn([C@H]2C[C@H](N=[N+]=[N-])[C@@H](COP(=O)(NCCNCCNC(=O)CCC(C)[C@H]3CC[C@H]4[C@@H]5CC[C@@H]6C[C@H](O)CC[C@]6(C)[C@H]5C[C@H](O)[C@]34C)OC[C@H]3O[C@@H](n4cc(C)c(=O)[nH]c4=O)C[C@@H]3N=[N+]=[N-])O2)c(=O)[nH]c1=O` (stereo not given in full): the concentration for half-maximal inhibition (IC50) in assay [1] was over 100 µM; in assay [2] (Homo sapiens, 786-0, 48 h) it was over 100 µM.

With `CCCCCCCCCCCCCCCCCCOP(=O)(NCCCNCCCNC(=O)CCC(C)[C@H]1CC[C@H]2[C@@H]3CC[C@@H]4C[C@H](O)CC[C@]4(C)[C@H]3C[C@H](O)[C@]12C)OC[C@H]1O[C@@H](n2cc(C)c(=O)[nH]c2=O)C[C@@H]1N=[N+]=[N-]` (stereo not given in full), the concentration for half-maximal inhibition (IC50) in assay [1] turned out to be 89 µM; in assay [2] (Homo sapiens, 786-0, 48 h), 6.8 µM.

As to `CCCCCCCCCCCCCCCCCCOP(=O)(NCCNCCNC(=O)CCC(C)[C@H]1CC[C@H]2[C@@H]3[C@H](O)C[C@@H]4C[C@H](O)CC[C@]4(C)[C@H]3C[C@H](O)[C@]12C)OC[C@H]1O[C@@H](n2cc(C)c(=O)[nH]c2=O)C[C@@H]1N=[N+]=[N-]` (stereo in doubt; 2a), the IC50 in assay [2] (786-0) came out at 59 µM.

On to `Cc1cn([C@H]2C[C@H](N=[N+]=[N-])[C@@H](CO)O2)c(=O)[nH]c1=O` [ZIDOVUDINE], for which the half-maximal inhibitory concentration (IC50) in assay [3] and in assay [1] was over 100 µM throughout.

For orientation: IC50 means the concentration at which inhibition is half-maximal. Lower therefore signals greater potency in that assay.
